The assay concerns Hedgehog signaling pathway. Kind of assay: Gli-Luc luciferase reporter gene assay in C3H10T1/2/Gli-Luc cells under Shh-N stimulation. The settings on record: Mus musculus, C3H 10T1/2, 24 h, luciferase RLU, read-out: biological activity: IC50 of the inhibitory activities of compounds on the hedgehog pathway. It counts as cell-based. The text has this: The luciferase (Gli-Luc) reporter gene with Gli response element was transfected into C3H10T1/2 cells, under Shh-N stimulation conditions, determine the Hedgehog signaling pathway inhibitors through the detection of gene expression in cell activity report. In this study, we evaluated the inhibitory effects of compounds on Hedgehog signaling pathway in the IC50 value of the compound as an index.
Cell lines: C3H10T1/2/Gli-Luc stable cell line • C3H10T1/2/Gli-Luc Cell culture medium (DMEM/high glucose HyClone, #SH30022.01B; 10% serum Hyclone, #SV30087; 0.4% Hygromycin B Roche, #13398200) • 0.25% Trypsin-EDTA (Gibco, #25200)
Shh-N, HEK293/SHH-N stable cell culture supernatant
Inoculate the logarithmic growth phase of C3H10T1/2/Gli-Luc cells into a 96-well culture plate with 20000 cells per well, cells were cultured in a 37° C., 5% CO2 incubator overnight. The next day, the compounds were diluted in the following ways: the positive compound GDC0449 (1 mM) and the compounds (1 mM) to be measured were serially diluted to 7 concentrations by DMSO according to 1:3 and 1:10 respectively, the eighth is for DMSO control, and then diluted with fresh medium 100 times. The medium of the cells cultured overnight was removed, 80 μL fresh culture medium was added per well, then 20 μL gradiently diluted positive compound and compounds to be measured and 100 μL 30 nM Shh-N containing conditioned medium were added, each concentration repeated 2 wells, at the same time, positive and negative reference well were set (i.e. Shh Ctrl: 80 μL fresh medium+20 μL 1% DMSO containing medium+100 μL 30 nM Shh-N containing conditioned medium; Unstimulated Ctrl: 180 μL fresh medium+20 μL 1% DMSO containing medium), cells were cultured in the incubator for further 24 h.
Intracellular luciferase activity detection: take the cells out of 96-well plate, discard the culture medium, the cells were washed with PBS twice, then each well added with 20 μL lysate (Promega E1531), oscillate pyrolysis at room temperature for 30 min. 5 μL cell lysates were transferred to 384-well plate (Greiner 781074), then each well was added with 25 μL luciferase reaction liquid (Promega E1501), after rapid mixed, immediately placed into the VarioSkan Flash multi-function reading instrument to read the relative light units (RLU) value.
Data analysis: using Prism's GraphPad 5 for data analysis. RLU reading to the logarithmic mapping of compound concentration on behalf of luciferase activity, and then curve fitting using the following equation to give IC50 value, Y (RLU)=minimum+(maximum−minimum)/(1+10^(log of compound concentration−Log IC50)).

The values below come from patent US9938292B2 (GUANGDONG ZHONGSHENG PHARMACEUTICAL CO., LTD, priority 2014, dated 2018).

For `Cc1cn(-c2ccc(N3C[C@@H](C)O[C@@H](C)C3)cc2)c(=O)c2cccc(-c3ccc(C#N)s3)c12` [Embodiment 44], the IC50 fell in the range of 500 to 1000 nM.
With `Cc1cn(-c2ccc(N3C[C@@H](C)O[C@@H](C)C3)cc2)c(=O)c2cccc(-c3ccc(Cl)s3)c12` [Embodiment 45] the figure was 1000 to 5000 nM; with `Cc1cn(-c2ccc(N3C[C@@H](C)O[C@@H](C)C3)cc2)c(=O)c2cccc(-c3ccc(OC(F)(F)F)cc3)c12` [Embodiment 47], 1000 to 5000 nM; with `Cc1cn(-c2ccc(N3C[C@@H](C)O[C@@H](C)C3)cc2)c(=O)c2cccc(-c3cccn3C)c12` [Embodiment 48], 1000 to 5000 nM.
With `Cc1cn(-c2ccc(N3C[C@@H](C)O[C@@H](C)C3)cc2)c(=O)c2cccc(-c3ccncc3)c12` [Embodiment 49] the figure was 500 to 1000 nM; with `Cc1cn(-c2ccc(N3C[C@@H](C)O[C@@H](C)C3)cc2)c(=O)c2cccc(-c3ccc(F)cc3)c12` [Embodiment 50], 500 to 1000 nM.
Turning to `Cc1cn(-c2ccc(N3C[C@@H](C)O[C@@H](C)C3)cc2)c(=O)c2cccc(-c3ccc(Cl)cc3)c12` [Embodiment 51], the IC50 lay in the range of 100 to 500 nM.
Under `Cc1cn(-c2ccc(N3C[C@@H](C)O[C@@H](C)C3)cc2)c(=O)c2cccc(-c3ccc(C#N)cc3)c12` [Embodiment 52] stands 100 to 500 nM.
Under `Cc1cn(-c2ccc(N3C[C@@H](C)O[C@@H](C)C3)cc2)c(=O)c2cccc(-c3ccccn3)c12` [Embodiment 53] stands 500 to 1000 nM; under `Cc1cn(-c2ccc(N3C[C@@H](C)O[C@@H](C)C3)cc2)c(=O)c2cccc(-c3cncnc3)c12` [Embodiment 54], 1000 to 5000 nM; under `Cc1cn(-c2ccc(N3C[C@@H](C)O[C@@H](C)C3)cc2)c(=O)c2cccc(-c3ccc(C#N)cn3)c12` [Embodiment 55], 1000 to 5000 nM.
With `Cc1cn(-c2ccc(N3C[C@@H](C)O[C@@H](C)C3)cc2)c(=O)c2cccc(-c3ccc(C#N)nc3)c12` [Embodiment 56], the IC50 lay in the range of 500 to 1000 nM.
With `Cc1cn(-c2ccc(N3C[C@@H](C)O[C@@H](C)C3)cc2)c(=O)c2cccc(-c3ccccc3)c12` [Embodiment 57], the concentration for half-maximal inhibition (IC50) fell in the range of 500 to 1000 nM.
Under `Cc1cn(-c2ccc(N3C[C@@H](C)O[C@@H](C)C3)cc2)c(=O)c2cccc(-c3ccc(C#N)c(F)c3)c12` [Embodiment 59] stands 500 to 1000 nM.
Under `Cc1cn(-c2ccc(N3C[C@@H](C)O[C@@H](C)C3)cc2)c(=O)c2cccc(-c3ccc(C#N)cc3F)c12` [Embodiment 60] stands 100 to 500 nM; under `Cc1cc(-c2cccc3c(=O)n(-c4ccc(N5C[C@@H](C)O[C@@H](C)C5)cc4)cc(C)c23)ccc1C#N` [Embodiment 61], 100 to 500 nM; under `Cc1cc(C#N)ccc1-c1cccc2c(=O)n(-c3ccc(N4C[C@@H](C)O[C@@H](C)C4)cc3)cc(C)c12` [Embodiment 62], 100 to 500 nM.
Under `Cc1cn(-c2ccc(N3C[C@@H](C)O[C@@H](C)C3)cc2)c(=O)c2cccc(-c3cccc(C#N)c3)c12` [Embodiment 63] stands 1000 to 5000 nM; under `Cc1cn(-c2ccc(N3C[C@@H](C)O[C@@H](C)C3)cc2)c(=O)c2cccc(-c3ccccc3C#N)c12` [Embodiment 64], 500 to 1000 nM; under `Cc1cn(-c2ccc(N3C[C@@H](C)O[C@@H](C)C3)cc2)c(=O)c2cccc(-c3ccc(Br)cc3)c12` [Embodiment 65], 500 to 1000 nM.
For the compound `Cc1cn(-c2ccc(N3C[C@@H](C)O[C@@H](C)C3)nc2)c(=O)c2cccc(-c3ccc(C#N)cc3)c12` [Embodiment 66], the half-maximal inhibitory concentration (IC50) was in the range of 500 to 1000 nM.
Under `Cc1cn(-c2ccc(N3C[C@@H](C)O[C@@H](C)C3)nc2)c(=O)c2cccc(-c3ccc(C(F)(F)F)cc3)c12` [Embodiment 67] stands 500 to 1000 nM.
With `Cc1cn(-c2ccc(N3C[C@@H](C)O[C@@H](C)C3)nc2)c(=O)c2cccc(-c3ccc(OC(F)(F)F)cc3)c12` [Embodiment 68] the figure was 1000 to 5000 nM.
